Results published in patent US8912318B2, “Nucleobase-functionalized conformationally restricted nucleotides and oligonucleotides for targeting nucleic acids” (University of Idaho, priority 2009, dated 2014).
Where two headings read alike, the source gives them in different places.

What was measured:
[1] = tested on: complementary or mismatched DNA targets; conditions: cited from earlier work
[2] = tested on: complementary or mismatched DNA targets; assay: Fluorescence quantum yields and extinction coefficients with DNA targets; type: physicochemical
complementary DNA = assay: UV thermal denaturation of 13-mer fluorophore probes with complementary DNA; type: binding; conditions: B = A
mismatched DNA targets = assay: UV thermal denaturation of 13-mer fluorophore probes with mismatched DNA targets; type: binding; conditions: for Tm / ΔTm: DNA: 3′-d(GCG TTG BGT TGC G); for ΔTm: relative to B = A; for mismatch ΔTm: mismatched vs complementary duplex
[3] = tested on: complementary or mismatched DNA targets; assay: Steady-state fluorescence emission intensity with DNA targets; conditions: for discrimination factor Im/Imm, range: intensity of duplex with complementary DNA divided by intensity of SSP or mismatched duplexes
[4] = tested on: Hoogsteen mismatched dsDNA targets (SEQ ID NO: 4 : SEQ ID NO: 5), B:B′ = T:A, C:G, G:C; assay: Thermal denaturation of Hoogsteen mismatched triplexes in the presence of Mg2+ ions; type: binding; conditions: for Tm of triplex: 10 mM MgCl2; for ΔTm: change relative to matched triplex
Method: (§1) Concentrations of all TFOs were determined using the extinction coefficient of 118500 L×(mol×cm)-1. 1 mL solution containing 1.0 nmol of each strand was denatured by heating and subsequently cooled to the starting temperature of the experiment in quartz optical cells with a path-length of 1.0 cm. Thermal denaturation profiles were recorded on a Cary 100 UV/VIS spectrophotometer equipped with a 12-cell Peltier temperature controller using a ramp of 0.5° C./min. Thermal denaturation temperatures (Tm) for triplex to duplex transitions were determined as the first derivative of difference thermal denaturation profiles (dA260 vs. T), which were obtained by subtracting the thermal denaturation profile of the dsDNA target (always included as one of the samples in multicell holder of UV-Vis spectrophotometer) from the raw thermal denaturation profile of the TFO+dsDNA (FIG. 13). Reported Tm-values are an average of at least two experiments within ±1.0° C.

[5] = tested on: dsDNA target (SEQ ID NO: 2 : SEQ ID NO: 3); assay: UV thermal denaturation of triplexes formed by TFOs with dsDNA; type: binding; conditions: for Tm of triplex: pH 7.0 phosphate buffer, 140 mM KCl, 1.0 μM each strand; for ΔTm/mod of triplex: relative to reference DNA TFO T1, per modification
[6] = tested on: dsDNA target (SEQ ID NO: 4 : SEQ ID NO: 5), B:B′ = A:T; assay: Thermal denaturation of matched triplexes in the presence of Mg2+ ions; type: binding; conditions: A:T (match); 10 mM MgCl2
Method: as §1

complementary RNA = assay: UV thermal denaturation of 13-mer probes with complementary RNA; type: binding; conditions: B = A
mismatched RNA targets = assay: UV thermal denaturation of 13-mer probes with mismatched RNA targets; type: binding
[7] = vs. the C-mismatched DNA target
[8] = complementary DNA, [Na+] = 110 mM, pH 7.0, 1.0 μM each strand

For O=C(O)CCCc1ccc2ccc3cccc4ccc1c2c34 [pyrenebutanoic acid], the “fluorescence quantum yield ΦF, reported value” [1] is given as 0.065 and the “fluorescence quantum yield ΦF” value ([2]; in MeOH, relative to 9,10-diphenylanthracene) is given as 0.069.
For “SEQ ID NO: 9: 5′-d(CGC AAC βCA ACG C (DNA CGCAACNCAACGC; β modified nucleotide, chemistry not fully specified)”, the Tm (complementary DNA; DNA: 3′-d(GCG TTG BGT TGC G)) was 56.5 °C, the Tm (mismatched DNA targets; B = C) was 43.0 °C and the ΔTm (mismatched DNA targets; B = C) was “(−13.0) ° C”. For the same compound, the Tm (mismatched DNA targets; B = G) was 46.5 °C, the ΔTm (mismatched DNA targets; B = G) was “(−10.0) ° C” and the Tm (mismatched DNA targets; B = T) was 48.5 °C. For the same compound, the ΔTm (mismatched DNA targets; B = T) was “(−8.0) ° C”.
In the case of “SEQ ID NO: 10: 5′-d(CGC AAC γCA ACG C (DNA CGCAACNCAACGC; γ modified nucleotide, chemistry not fully specified)”, the Tm (complementary DNA; DNA: 3′-d(GCG TTG BGT TGC G)) is reported as 47.0 °C, the Tm (mismatched DNA targets; B = C) is reported as 45.5 °C and the ΔTm (mismatched DNA targets; B = C) is reported as “(−1.5) ° C”. For the same compound, the Tm (mismatched DNA targets; B = G) was 46.5 °C, the ΔTm (mismatched DNA targets; B = G) was “(-0.5) ° C” and the Tm (mismatched DNA targets; B = T) was 45.5 °C. For the same compound, the ΔTm (mismatched DNA targets; B = T) was “(−1.5) ° C”.
With “ON14: 5′-CG CAA CP′C AAC GC (DNA CGCAACNCAACGC; modified nucleotide P', chemistry not fully specified)” the Tm (complementary DNA; DNA: 3′-d(GCG TTG BGT TGC G)) was 51.5 °C, the Tm (mismatched DNA targets; B = C) was 40.5 °C and the ΔTm (mismatched DNA targets; B = C) was “(−11.5) ° C”. For the same compound, the Tm (mismatched DNA targets; B = G) was 44.5 °C, the ΔTm (mismatched DNA targets; B = G) was “(−7.0) ° C” and the Tm (mismatched DNA targets; B = T) was 44.5 °C. For the same compound, the ΔTm (mismatched DNA targets; B = T) was “(−7.0) ° C”, the “discrimination factor Im/Imm” value [3, 7] was 5.8 and the “ΦF,m/ΦF,mm” value [2, 7] was roughly 3.2.
For “SEQ ID NO: 11: 5′-d(CGC AAC αCA ACG C (DNA CGCAACNCAACGC; α modified nucleotide, chemistry not fully specified)”, the Tm (complementary DNA; DNA: 3′-d(GCG TTG BGT TGC G)) was 44.5 °C, the Tm (mismatched DNA targets; B = C) was 43.0 °C and the ΔTm (mismatched DNA targets; B = C) was “(−1.5) ° C”. The Tm (mismatched DNA targets; B = G) was 46.0 °C, the ΔTm (mismatched DNA targets; B = G) was “(+1.5) ° C” and the Tm (mismatched DNA targets; B = T) was 45.0 °C. For the same compound, the ΔTm (mismatched DNA targets; B = T) was “(+0.5) ° C”.
For “ON16: 5′-CG CAA TP′T AAC GC (DNA CGCAATNTAACGC; modified nucleotide P', chemistry not fully specified)”, the “discrimination factor Im/Imm, range” value [3] was 2.9-11.4.
In the case of “V1′: TFO TTT TT^mC TBT ^mCT^mC T^mCT, B = V′ (DNA TTTTTNTNTNTNTNT; 5-methyl-C, modified nucleotide V', chemistry not fully specified)”, the Tm of triplex ([4]; C:G mismatch) is reported as 14.5 °C, the ΔTm ([4]; C:G mismatch) is reported as −31.5 °C and the Tm of triplex ([4]; G:C mismatch) is reported as 25.5 °C. For the same compound, the ΔTm ([4]; G:C mismatch) was −20.5 °C, the Tm of triplex ([4]; T:A mismatch) was 11.0 °C and the ΔTm ([4]; T:A mismatch) was −36.0 °C. For the same compound, the Tm of triplex [5] was 37.0 °C, the ΔTm/mod of triplex [5] was “+8.0 °C” and the Tm of triplex [6] was 46.0 °C.
Compound “Y1′: TFO TTT TT^mC TBT ^mCT^mC T^mCT, B = Y′ (DNA TTTTTNTNTNTNTNT; 5-methyl-C, modified nucleotide Y', chemistry not fully specified)” has a Tm of triplex ([4]; C:G mismatch) of 13.5 °C, a ΔTm ([4]; C:G mismatch) of −34.0 °C and a Tm of triplex ([4]; G:C mismatch) of 24.5 °C. For the same compound, the ΔTm ([4]; G:C mismatch) was −23.0 °C, the Tm of triplex ([4]; T:A mismatch) was 12.0 °C and the ΔTm ([4]; T:A mismatch) was −35.5 °C. For the same compound, the Tm of triplex [5] was 37.5 °C, the ΔTm/mod of triplex [5] was “+8.5 °C” and the Tm of triplex [6] was 47.5 °C.
“X1′: TFO TTT TT^mC TBT ^mCT^mC T^mCT, B = X′ (DNA TTTTTNTNTNTNTNT; 5-methyl-C, modified nucleotide X', chemistry not fully specified) [reference compound]” gave a Tm of triplex ([4]; C:G mismatch) of 15.5 °C, a ΔTm ([4]; C:G mismatch) of −29.5 °C and a Tm of triplex ([4]; G:C mismatch) of 22.5 °C. For the same compound, the ΔTm ([4]; G:C mismatch) was −22.5 °C, the Tm of triplex ([4]; T:A mismatch) was 10.0 °C and the ΔTm ([4]; T:A mismatch) was −35.0 °C. The Tm of triplex [5] was 35.5 °C, the ΔTm/mod of triplex [5] was “+6.5 °C” and the Tm of triplex [6] was 45.0 °C.
“ON2: unmodified reference strand 5′-CG CAA CTC AAC GC (DNA CGCAACTCAACGC; DNA, backbone not given here) [reference compound]” showed a Tm (complementary DNA; DNA: 3′-d(GCG TTG BGT TGC G)) of 55.5 °C, a Tm (complementary DNA; [8]) of 55.5 °C and a Tm (complementary RNA) of 51.5 °C. The “mismatch ΔTm” value (mismatched DNA targets; DNA target B = C) was −13.5 °C, the “mismatch ΔTm” value (mismatched DNA targets; DNA target B = G) was −7.0 °C and the “mismatch ΔTm” value (mismatched DNA targets; DNA target B = T) was −9.0 °C. The Tm (mismatched DNA targets; B = C) was 42.0 °C, the ΔTm (mismatched DNA targets; B = C) was “(−13.5) ° C” and the Tm (mismatched DNA targets; B = G) was 48.5 °C. The ΔTm (mismatched DNA targets; B = G) was “(−7.0) ° C”, the Tm (mismatched DNA targets; B = T) was 46.5 °C and the ΔTm (mismatched DNA targets; B = T) was “(−9.0) ° C”. The “mismatch DTm” value (mismatched RNA targets; RNA target B = C) was −15.5 °C, the “mismatch DTm” value (mismatched RNA targets; RNA target B = G) was −3.0 °C and the “mismatch DTm” value (mismatched RNA targets; RNA target B = U) was −13.5 °C.
In the case of O=C(NCC#Cc1cn([C@H]2C[C@H](O)[C@@H](CO)O2)c(=O)[nH]c1=O)c1ccc2ccc3cccc4ccc1c2c34 [P″, 5-[3-(1-pyrenecarboxamido)propynyl]-2′-deoxyuridine], the “Fluorescence quantum yield (φF)” value ([2]; DNA target B = A, T = 5° C.) is reported as 0.33-0.58.
In the case of c1ccc(-c2c3ccccc3c(-c3ccccc3)c3ccccc23)cc1 [9,10-diphenylanthracene], the “fluorescence quantum yield ΦF” value [1] is given as 0.95.
In the case of “ON10: 5′-CG CAA CPC AAC GC (DNA CGCAACNCAACGC; listed as DNA, chemistry not fully specified)”, the Tm (complementary DNA; DNA: 3′-d(GCG TTG BGT TGC G)) is reported as 52.5 °C, the Tm (mismatched DNA targets; B = C) is reported as 43.0 °C and the ΔTm (mismatched DNA targets; B = C) is reported as “(−9.5) ° C”. The Tm (mismatched DNA targets; B = G) was 48.0 °C, the ΔTm (mismatched DNA targets; B = G) was “(−4.5) ° C” and the Tm (mismatched DNA targets; B = T) was 46.0 °C. The ΔTm (mismatched DNA targets; B = T) was “(−6.5) ° C” and the “discrimination factor Im/Imm, range” value [3] was 7.3-15.9.
For “ON1: unmodified reference strand 5′-CG CAA ATA AAC GC (DNA CGCAAATAAACGC; unmodified DNA) [reference compound]”, the Tm (complementary DNA; [8]) was 48.5 °C, the “mismatch ΔTm” value (mismatched DNA targets; DNA target B = C) was −10.0 °C and the “mismatch ΔTm” value (mismatched DNA targets; DNA target B = G) was −5.0 °C. The “mismatch ΔTm” value (mismatched DNA targets; DNA target B = T) was −9.0 °C.
With “ON13: 5′-CG CAA AP′A AAC GC (DNA CGCAAANAAACGC; modified nucleotide P', chemistry not fully specified)” the “discrimination factor Im/Imm, range” value [3] was 3.4-14.1.
In the case of “ON11: 5′-CG CAA GPG AAC GC (DNA CGCAAGNGAACGC; listed as DNA, chemistry not fully specified)”, the “discrimination factor Im/Imm, range” value [3] is reported as 8.3-41.9.
